Laboratory results published in patent US11766441B2, “Oral liquid compositions including chlorpromazine” (GENUS LIFESCIENCES INC., priority 2020, dated 2023).

What was measured:
[1] = pH range of 1 to 12 at ambient temperature; cited from earlier work
[2] = Drug-excipient compatibility: HPLC assay and impurities of 20 mg/ml API/excipient solutions in purified water after storage; assay type: physicochemical
Description: Common excipients functioning as a solvent, a sweetener, an antioxidant, a chelating agent, a buffer system component, and a preservative were evaluated in the following example for excipient and drug substance compatibility. Compatibility was assessed through high performance liquid chromatography (HPLC) analysis of solutions containing the mixtures of the drug substance and the individual evaluated excipient in purified water. A relatively low concentration (20 mg/ml) of active pharmaceutical ingredient was selected to enhance potential oxidative or hydrolytic degradation of the API in the presence of the excipients. The excipients were used in slight excess to enhance potential interactions. The proportion of excipients was selected such that it was representative of their respective proportions to the API in the finished product.
Additionally, the pH of the solution was also monitored during development to ensure the physical stability of the product.

[3] = after storage for 1 Month at 25° C./60% RH
[4] = after storage for 1 Month at 40° C./75% RH
[5] = after storage for 15 days at 60° C.

In the case of `CN(C)CCCN1c2ccccc2Sc2ccc(Cl)cc21.Cl` [Chlorpromazine hydrochloride, 2-chloro-10-[3-(dimethylamino)propyl] phenothiazine hydrochloride], the solubility [1] is listed as “greater than 1 g/mL”, the “Assay of Chlorpromazine Hydrochloride (% Label Claim)” value (“Assay … (% Label Claim)” for short) ([2]; 1 M, 25° C./60% RH) is listed as 98.6 % Label Claim and the “Assay … (% Label Claim)” value ([2]; 1 M, 40° C./75% RH) is listed as 98.7 % Label Claim. For the same molecule, the “Assay … (% Label Claim)” value ([2]; 15 Days, 60° C.) was 100.9 % Label Claim, the “Assay … (% Label Claim)” value ([2]; T0) was 98.3 % Label Claim and the “Impurities (%) A” value [2, 3] was 0.07%. The “Impurities (%) C” value [2, 3] was 0.07%, the “Impurities (%) D” value [2, 3] was 0.03% and the “Impurities (%) Total” value [2, 3] was 0.24%. For the same molecule, the “Impurities (%) UD (RRT 0.55)” value [2, 3] was 0.02%, the “Impurities (%) UD (RRT 0.61)” value [2, 3] was 0.02% and the “Impurities (%) UD (RRT 1.42)” value [2, 3] was 0.03%. The “Impurities (%) A” value [2, 4] was 0.21%, the “Impurities (%) C” value [2, 4] was 0.07% and the “Impurities (%) D” value [2, 4] was 0.08%. For the same molecule, the “Impurities (%) Total” value [2, 4] was 0.44%, the “Impurities (%) UD (RRT 0.55)” value [2, 4] was 0.02% and the “Impurities (%) UD (RRT 0.61)” value [2, 4] was 0.02%. The “Impurities (%) UD (RRT 1.42)” value [2, 4] was 0.03%, the “Impurities (%) A” value [2, 5] was 0.55% and the “Impurities (%) C” value [2, 5] was 0.08%. For the same molecule, the “Impurities (%) D” value [2, 5] was 0.18%, the “Impurities (%) E” value [2, 5] was 0.02% and the “Impurities (%) Total” value [2, 5] was 1.04%. The “Impurities (%) UD (RRT 0.49)” value [2, 5] was 0.02%, the “Impurities (%) UD (RRT 0.55)” value [2, 5] was 0.14% and the “Impurities (%) UD (RRT 0.61)” value [2, 5] was 0.03%. The “Impurities (%) UD (RRT 1.42)” value [2, 5] was 0.03%, the “Impurities (%) Total” value ([2]; time zero) was 0.11% and the “Impurities (%) UD (RRT 0.82)” value ([2]; time zero) was 0.08%. For the same molecule, the “Impurities (%) UD (RRT 1.31)” value ([2]; time zero) was 0.03%.
